Calls of active or inactive are those of the source. No cut-off for these calls is given here.
Columns and labels:
Rattus norvegicus [1] = assay: Cardioprotective activity in Rattus norvegicus Sprague-Dawley (rat) ischemia-reperfusion injury model assessed as decrease in polymorphonuclear leukocytes infiltration in myocardial tissue at 20 mg/kg, iv measured 10 min prior to reperfusion measured at 6 hr by hematoxylin-eosin staining-based light microscopy relative to untreated control; format: functional, organism-based; set-up: dose 20 mg/kg; conditions: Myocardium
Rattus norvegicus [2] = assay: Downregulation of ICAM-1 expression in Rattus norvegicus Sprague-Dawley (rat) heart at 20 mg/kg, iv measured 10 min post LAD ligation by Western blot analysis relative to untreated control; format: functional, organism-based; set-up: dose 20 mg/kg
Rattus norvegicus [3] = assay: (§1) Cardioprotective activity in Rattus norvegicus Sprague-Dawley (rat) ischemia-reperfusion injury model assessed as decrease in myocardial infarct size at 20 mg/kg, iv administered 10 min prior to ischemia-reperfusion establishment measured after 6 hr by tetrazolium chloride staining-based planimetric analysis (reference value: 42.6 +/- 3.8 %); format: functional, Myocardium; set-up: scale not given: the % may be the effect or the level left
Rattus norvegicus [4] = assay: as §1, with “area at risk” for “decrease”, “tissue” for “infarct size”, “Evans blue” for “tetrazolium chloride”, “49.8” for “42.6”, “3.7” for “3.8”; format: functional, Myocardium
Rattus norvegicus [5] = assay: Cardioprotective activity in Rattus norvegicus Sprague-Dawley (rat) ischemia-reperfusion injury model assessed as decrease in myeloperoxidase activation in myocardial tissue at 20 mg/kg, iv measured 10 min prior to reperfusion measured at 6 hr by spectrophotometric analysis relative to untreated control; format: functional, organism-based; set-up: dose 20 mg/kg; conditions: Myocardium

`CC(C)=CCC[C@](C)(O[C@@H]1O[C@H](CO)[C@@H](O)[C@H](O)[C@H]1O)[C@H]1CC[C@]2(C)[C@@H]1[C@H](O)C[C@@H]1[C@@]3(C)CC[C@H](O)C(C)(C)[C@@H]3[C@@H](O[C@@H]3O[C@H](CO)[C@@H](O)[C@H](O)[C@H]3O[C@@H]3O[C@@H](C)[C@H](O)[C@@H](O)[C@H]3O)C[C@]12C` [GINSENOSIDE RE] was tested, and the Activity (Rattus norvegicus [1]) was “Active”, the Activity (Rattus norvegicus [2]) was “Active” and the Activity (Rattus norvegicus [3]) was 42.6%. For the same compound, the Activity (Rattus norvegicus [4]) was 50.3% and the Activity (Rattus norvegicus [5]) was “Active”.

— ChEMBL document CHEMBL3045189, “Ginsenoside Re downregulates ICAM-1 expression, inhibits polymorphonuclear infiltration, and ameliorates ischemia-reperfusion injury” (2010)
